Data as given in article PMC12388904, “Hypoglycemic Effects of Silphium perfoliatum L. In Vitro and In Vivo and Its Active Composition Identification by UPLC-Triple-TOF-MS/MS” (Pharmaceuticals, 2025).
pIC50: −log10 of the molar value. ≈ marks a conversion by molar mass, not a printed value.

Columns and labels:
sucrase = sucrase (Rattus norvegicus, UniProt P23739); assay: In vitro sucrase inhibition (rat intestinal mucosa α-glucosidase, glucose assay kit)
Excerpt: (§2) The α-Glucosidase preparation and inhibitory activity evaluation followed established laboratory protocols [41]. After overnight fasting, rats were humanely euthanized according to approved ethical guidelines. Small intestinal segments were immediately excised and placed on ice to preserve enzymatic activity. Following longitudinal dissection, the luminal surface was rinsed three times with pre-chilled PBS (0.1 M, pH 7.4), and mucosa was scraped using sterile slides. The mucosal tissue was subsequently dissolved in cold PBS (1:5 m/v), centrifuged (8000 rpm, 4 °C, 4 min), and the supernatant was snap-frozen in liquid nitrogen for storage at −80 °C.
(§3) After shaking, 50 μL of maltase (11.32 U/mL) or sucrase (15.26 U/mL) was added and incubated at 37 °C for 20 min with oscillation. Reactions were terminated by heating at 95 °C for 15 min. Glucose production was quantified using a glucose assay kit, and IC50 values were calculated with GraphPad Prism 9.5.1.

maltase = assay: In vitro maltase inhibition (rat intestinal mucosa α-glucosidase, glucose assay kit); conditions: for IC50 on maltase: Figure 4C, same IC50 in mass units, in brackets; for pIC50: read-out: IC50 against maltase, Figure 4
Excerpt: as §2, §3

diabetic mice [1] = assay: Maltose tolerance test, PBG detection in alloxan-induced diabetic mice; assay type: in vivo; conditions: maltose 3 g/kg oral, compared to model group
Method: (§1) PBG detection in diabetic mice adhered to the protocol previously established by our group. After 12-h fasting, hyperglycemia was induced by tail vein injection of alloxan at a dose of 60 mg/kg. Fasting blood glucose was measured 72 h post-induction. Mice with blood glucose levels of 180–360 mg/dL were considered diabetic and randomized into five groups (n = 8/group): Model (sucrose 3 g/kg); […] SP-10 L (sucrose 3 g/kg + SP-10 5 mg/kg); SP-10 M (sucrose 3 g/kg + SP-10 10 mg/kg) and SP-10 H (sucrose 3 g/kg + SP-10 20 mg/kg). Blood glucose was measured pre-gavage and at 30, 60, and 120 min post-gavage. Data was recorded and analyzed for PBG and AUC using Graphpad Prism 9.5.1. Maltose and starch experiments used identical designs.

diabetic mice [2] = assay: Sucrose tolerance test, PBG detection in alloxan-induced diabetic mice; assay type: in vivo; conditions: sucrose 3 g/kg oral, acarbose 6 mg/kg
Method: as §1

diabetic mice [3] = assay: Starch tolerance test, PBG detection in alloxan-induced diabetic mice; assay type: in vivo; conditions: starch 3 g/kg oral, acarbose 6 mg/kg, compared to model group
Method: as §1

[4] = IC50 against sucrase, Figure 4, sucrose 50 mmol/L, 37 °C, 20 min
[5] = IC50 on sucrase, Figure 4D, same IC50 in mass units, in brackets
[6] = maltose 1 mmol/L, 37 °C, 20 min
[7] = SP-10 10 and 20 mg/kg, compared to model group

Sequence of sucrase (P23739 whole entry): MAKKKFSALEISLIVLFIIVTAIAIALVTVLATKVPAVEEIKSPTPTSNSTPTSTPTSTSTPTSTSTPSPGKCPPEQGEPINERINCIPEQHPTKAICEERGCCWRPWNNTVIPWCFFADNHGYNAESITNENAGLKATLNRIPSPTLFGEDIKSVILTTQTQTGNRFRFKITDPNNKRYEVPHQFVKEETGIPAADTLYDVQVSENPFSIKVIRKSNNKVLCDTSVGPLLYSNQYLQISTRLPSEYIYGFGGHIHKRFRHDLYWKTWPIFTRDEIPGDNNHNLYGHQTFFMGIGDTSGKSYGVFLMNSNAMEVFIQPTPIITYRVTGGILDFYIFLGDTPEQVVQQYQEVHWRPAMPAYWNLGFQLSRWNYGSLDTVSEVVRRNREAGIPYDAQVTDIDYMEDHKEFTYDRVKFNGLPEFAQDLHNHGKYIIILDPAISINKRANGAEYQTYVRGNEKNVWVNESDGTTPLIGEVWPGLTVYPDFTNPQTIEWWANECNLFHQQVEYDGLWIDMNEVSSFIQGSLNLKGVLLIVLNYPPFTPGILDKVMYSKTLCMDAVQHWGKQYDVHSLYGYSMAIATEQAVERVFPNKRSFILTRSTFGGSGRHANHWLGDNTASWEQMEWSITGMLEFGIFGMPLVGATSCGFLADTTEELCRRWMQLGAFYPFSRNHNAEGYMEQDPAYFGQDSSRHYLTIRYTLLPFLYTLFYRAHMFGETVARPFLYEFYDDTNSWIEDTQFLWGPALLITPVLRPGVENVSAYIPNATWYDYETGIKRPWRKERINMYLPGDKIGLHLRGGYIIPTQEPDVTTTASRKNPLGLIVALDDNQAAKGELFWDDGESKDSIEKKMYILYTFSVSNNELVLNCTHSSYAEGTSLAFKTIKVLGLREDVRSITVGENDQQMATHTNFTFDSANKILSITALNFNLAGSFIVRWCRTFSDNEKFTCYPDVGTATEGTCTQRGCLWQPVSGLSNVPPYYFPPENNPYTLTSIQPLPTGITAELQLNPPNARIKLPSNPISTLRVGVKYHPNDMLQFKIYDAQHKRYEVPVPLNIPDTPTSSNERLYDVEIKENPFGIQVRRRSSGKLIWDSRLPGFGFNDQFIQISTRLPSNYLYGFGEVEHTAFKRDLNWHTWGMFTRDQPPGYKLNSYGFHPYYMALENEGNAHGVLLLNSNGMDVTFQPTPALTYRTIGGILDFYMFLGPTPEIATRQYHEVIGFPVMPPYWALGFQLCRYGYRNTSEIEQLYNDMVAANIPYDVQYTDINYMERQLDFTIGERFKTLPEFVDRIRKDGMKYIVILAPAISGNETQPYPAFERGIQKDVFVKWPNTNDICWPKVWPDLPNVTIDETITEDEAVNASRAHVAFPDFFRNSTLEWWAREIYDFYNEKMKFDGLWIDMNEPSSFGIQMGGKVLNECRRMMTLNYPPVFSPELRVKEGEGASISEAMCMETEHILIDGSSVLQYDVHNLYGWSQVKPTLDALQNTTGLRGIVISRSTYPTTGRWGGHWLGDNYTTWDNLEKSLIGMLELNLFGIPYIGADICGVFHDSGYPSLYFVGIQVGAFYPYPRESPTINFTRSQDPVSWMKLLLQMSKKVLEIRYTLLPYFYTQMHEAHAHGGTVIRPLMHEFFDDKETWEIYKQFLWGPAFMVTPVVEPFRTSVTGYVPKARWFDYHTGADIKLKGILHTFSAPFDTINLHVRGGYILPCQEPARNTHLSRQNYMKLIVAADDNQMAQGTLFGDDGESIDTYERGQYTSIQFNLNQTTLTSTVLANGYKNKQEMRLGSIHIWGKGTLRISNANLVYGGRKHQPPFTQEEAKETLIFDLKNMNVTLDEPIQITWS

O=C(C=Cc1ccc(O)c(O)c1)OC1C(O)CC(O)(C(=O)O)CC1O (centres unmarked) [CCGA, cryptochlorogenic acid]
pIC50 (sucrase; [4]): 3.96
pIC50 (sucrase; [5]): 3.96
IC50 on maltase (maltase): 38.47 µg/mL (≈ 109 µM)
pIC50 (maltase; [6]): 3.96

O=C(/C=C/c1ccc(O)c(O)c1)O[C@@H]1C[C@](O)(C(=O)O)C[C@@H](O)[C@H]1O [CGA, chlorogenic acid]
IC50 against sucrase, fold higher relative to acarbose (sucrase): 210 fold
pIC50 (sucrase; [4]): 3.90
pIC50 (sucrase; [5]): 3.90
IC50 on maltase (maltase): 40.60 µg/mL (≈ 115 µM)
pIC50 (maltase; [6]): 3.94

O=C(C=Cc1ccc(O)c(O)c1)OC1CC(O)(C(=O)O)CC(O)C1O (centres unmarked) [NCGA, neochlorogenic acid]
IC50 against sucrase, fold higher relative to acarbose (sucrase): 215 fold
pIC50 (sucrase; [4]): 3.89
pIC50 (sucrase; [5]): 3.89
IC50 on maltase (maltase): 31.07 µg/mL (≈ 87.7 µM)
pIC50 (maltase; [6]): 4.06

C[C@H]1O[C@H](O[C@H]2[C@H](O)[C@@H](O)[C@@H](O[C@H]3[C@H](O)[C@@H](O)C(O)O[C@@H]3CO)O[C@@H]2CO)[C@H](O)[C@@H](O)[C@@H]1N[C@H]1C=C(CO)[C@@H](O)[C@H](O)[C@H]1O (some centres unmarked) [acarbose, Acarbose]
PBG levels at 30 and 60 min (diabetic mice [1]; all three SP-10 groups (5, 10, 20 mg/kg), acarbose 6 mg/kg): lower PBG levels at 30 and 60 min, although these differences were not statistically significant
PBG levels at 120 min (diabetic mice [1]; all treatment groups (SP-10 5, 10, 20 mg/kg, acarbose 6 mg/kg)): statistically significant reductions
Blood glucose AUC (0–120 min) (diabetic mice [2]; [7]): significantly lower
PBG levels at 30 min (diabetic mice [2]; [7]): significant attenuation
Glycemic levels by 120 min (diabetic mice [2]; SP-10 H 20 mg/kg): restored glycemic levels to preprandial values
IC50 for maltase inhibition (maltase; Figure 1, maltose 1 mmol/L, 37 °C, 20 min): 0.168 µg/mL
pIC50 (maltase; [6]): 6.59
PBG levels at all measured time points (diabetic mice [3]; SP-10 H 20 mg/kg): significantly reduced
AUC levels (0–120 min) (diabetic mice [3]; SP-10 M 10 mg/kg and SP-10 H 20 mg/kg): markedly decreased
